Earlier results as cited in patent publication US10092615B2, “Nutritional supplements for improving male fertility” (Fairhaven Health, LLC, priority 2016, dated 2018).

Tests used:
infertile patients = conditions: given for a mean 103 days
[1] = system: sperm samples from 22 asthenospermic men; conditions: 50 μM, in vitro incubation
[2] = system: patients affected by male infertility; conditions: compared to placebo; for forward sperm motility (WMD): 95% CI (0.49, 23.16); for forward sperm motility (WMD) / total sperm motility (WMD): p=0.04; for total sperm motility (WMD): 95% CI (1.72, 13.14); for pregnancy rate (OR): 95% CI (2.08, 8.08), p<0.0001; for semen volume (WMD): 95% CI (−0.02, 0.58), p=0.07; for semen volume (WMD) / sperm concentration (WMD): without significant difference; for sperm concentration (WMD): 95% CI (−4.47, 15.84), p=0.27; for atypical sperm cell (WMD): 95% CI (−7.89, −3.56), p<0.00001

Q: Which standard sperm parameters (infertile patients) does the source give for `COC1=C(OC)C(=O)C(C/C=C(\C)CC/C=C(\C)CC/C=C(\C)CC/C=C(\C)CC/C=C(\C)CC/C=C(\C)CC/C=C(\C)CC/C=C(\C)CC/C=C(\C)CCC=C(C)C)=C(C)C1=O` [Coenzyme Q10] here?
A: The standard sperm parameters was “no significant changes”.

Q: And the fertilization rate (infertile patients; p<0.05)?
A: The fertilization rate was “significant improvement”.

Q: What about the sperm motility [1] of the same compound?
A: Its sperm motility is “significant increases in motility”.

Q: Which results are given for `CC(=O)O[C@H](CC(=O)[O-])C[N+](C)(C)C` [acetyl-L-carnitine]?
A: forward sperm motility (WMD) [2]: 11.83; total sperm motility (WMD) [2]: 7.43; pregnancy rate (OR) [2]: 4.10; semen volume (WMD) [2]: 0.28; sperm concentration (WMD) [2]: 5.69; atypical sperm cell (WMD) [2]: −5.72

Q: Which results are given for `C[N+](C)(C)C[C@H](O)CC(=O)[O-]` [L-carnitine]?
A: forward sperm motility (WMD) [2]: 11.83; total sperm motility (WMD) [2]: 7.43; pregnancy rate (OR) [2]: 4.10; semen volume (WMD) [2]: 0.28; sperm concentration (WMD) [2]: 5.69; atypical sperm cell (WMD) [2]: −5.72
